How the values were obtained:
[1] = Dog LM (liver microsome) assay; format: in vitro ADME; conditions: Table 3a; predicted clearance as percent of liver blood flow, 1 μM, 1 mg/ml microsomal protein
Outline: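 Pooled Beagle liver microsomes (1 mg/ml protein), compound 1 μM, Tris pH 7.6 with 5 mM MgCl2, 37 °C, started with 1 mM NADPH; parent loss by LC-MS/MS over several time points.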

JAK1 = JAK1 (Homo sapiens (Human), UniProt P23458); test: Biochemical kinase assay (33P-ATP filter-binding), JAK1; conditions: Table 3a; read-out: IC50 JAK1
Source text: (§1) Biochemical Kinase Assay Protocol (JAK)
(§2) Reaction Procedure: • 1. […] Detected kinase activity by filter-binding method.

IL-4/pSTAT6 = test: Cytokine function assay IL-4/pSTAT6 in PBMC; format: cell-based; conditions: PBMC, read-out: IC50 IL-4, Table 3a
Procedure: (§3) Cytokine Function Assay Protocols for IL-4/pSTAT6 and GM-CSF/pSTAT5
IL-4/pSTAT6: • PBMC from a healthy donor was plated onto a 96 w plate. Compound was added and incubated for 1 hour (at 37° C.). After 1 hour, cells were stimulated with IL-4 for 15 minutes. Cells were fixed and stained with anti-pSTAT6 antibody. After staining, cells were read on a Beckman-Coulter CytoFLEX.

IL-31 = test: Cytokine function assay for IL-31 in DH82 cells; format: cell-based, canine; conditions: Canis lupus familiaris, DH82; Table 3a; read-out: IC50 IL-31
Procedure: Cytokine Function Assay Protocol for IL-31
The protocol for the cytokine function assay for IL-31 is set forth below: • 1. […] After 24 hr, wash with 37° C. pre-warmed PBS (100 uL/well). • 3. Add serum-free MEM, 90 uL per well, 2 hr, 37° C. • 4. Add 10 uL 10×IL-31 (40, 10, 2.5 ug/mL) in duplicate, 5 min, 37° C. • 5. Remove medium, add 60 uL lysis buffer per well. Agitate on a plate shaker (˜350 rpm) for 10 min at RT. • 6. […] Add 6 uL Acceptor Mix, cover with aluminum foil, quickly spin at 1000 rpm, shake at 120 rpm for 2 min, then incubate at RT for 1 hr. • 8. Add 6 uL Donor Mix, cover with aluminum foil, quickly spin at 1000 rpm, shake at 120 rpm for 2 min, then incubate at RT for 1 hr. • 9. Measure the fluorescence using EnVision™ plate reader.

JAK2 = JAK2 (Homo sapiens (Human), UniProt O60674); test: Biochemical kinase assay (33P-ATP filter-binding), JAK2; conditions: Table 3a; read-out: IC50 JAK2
Source text: as §1, §2

GM-CSF/pSTAT5 = test: Cytokine function assay GM-CSF/pSTAT5 in lysed whole blood cells; format: cell-based; conditions: Whole blood cell, read-out: IC50 GM-CSF
Procedure: as §3
GM-CSF/pSTAT5: • Whole blood from a healthy donor was lysed to remove red blood cells. Cells were plated onto a 96 well plate. Compound was added and incubated for 1 hour (at 37° C.). After 1 hour, cells were stimulated with GM-CSF for 15 minutes. Cells were fixed and stained with anti-pSTAT5 antibody. After staining, cells were read on a Beckman-Coulter CytoFLEX.

[2] = Pharmacokinetic profile after single oral administration in Beagle dogs; format: in vivo; conditions: male Beagle dogs, single oral dose about 1.0 mg/kg, fasted
Procedure: Summary of Pharmacokinetic (PK) profile
Three healthy male Beagle dogs were studied to determine a representative pharmacokinetic (PK) profile following a single oral administration of 1.0 mg/kg to each dog in a fasted state. Blood samples were collected at pre-dose, 0.25, 0.5, 1, 2, 4, 8, 24; 32, and 48 h post dose following oral administration (1 mg/mL in 10% Propylene glycol (PG), 45% PEG400, 7% Cremophor EL, 38% 50 mM citrate buffer pH 3.0 suspension or clear solution).

[3] = test system: recombinant canine IL-31 induced pruritic behaviors; test: IL-31 induced itch behavior in Beagle dogs; format: in vivo; conditions: oral 1 mg/kg once daily for 5 days, IL-31 1.75 μg/kg i.v. on day 5
Procedure: Ten healthy adult male Beagle dogs with no previous history of pruritus or skin disease were selected. […] Afterward, all dogs received repeated administration of oral solution and again intravenously recombinant canine IL-31 injections to assess inhibition of IL-31 induced itch behavior. (See, e.g., Gonzales, Vet. Dermatol. 2016, 27, 34-e10 and Pearson, Vet. Sci. 2023, 10, 369)
An oral solution of a representative compound of the present disclosure, Example 33a, at 1 mg/kg once daily in the morning for five (5) days, was administered to each dog in a crossover design for the five (5) consecutive days. All dogs were fasted during the oral administration and thirty minutes (30 min) post oral drug administration. On day 5, all dogs were administered a recombinant canine IL-31 intravenously at the dose of 1.75 μg/kg.

Sequence of JAK2 (O60674 whole entry, species assumed): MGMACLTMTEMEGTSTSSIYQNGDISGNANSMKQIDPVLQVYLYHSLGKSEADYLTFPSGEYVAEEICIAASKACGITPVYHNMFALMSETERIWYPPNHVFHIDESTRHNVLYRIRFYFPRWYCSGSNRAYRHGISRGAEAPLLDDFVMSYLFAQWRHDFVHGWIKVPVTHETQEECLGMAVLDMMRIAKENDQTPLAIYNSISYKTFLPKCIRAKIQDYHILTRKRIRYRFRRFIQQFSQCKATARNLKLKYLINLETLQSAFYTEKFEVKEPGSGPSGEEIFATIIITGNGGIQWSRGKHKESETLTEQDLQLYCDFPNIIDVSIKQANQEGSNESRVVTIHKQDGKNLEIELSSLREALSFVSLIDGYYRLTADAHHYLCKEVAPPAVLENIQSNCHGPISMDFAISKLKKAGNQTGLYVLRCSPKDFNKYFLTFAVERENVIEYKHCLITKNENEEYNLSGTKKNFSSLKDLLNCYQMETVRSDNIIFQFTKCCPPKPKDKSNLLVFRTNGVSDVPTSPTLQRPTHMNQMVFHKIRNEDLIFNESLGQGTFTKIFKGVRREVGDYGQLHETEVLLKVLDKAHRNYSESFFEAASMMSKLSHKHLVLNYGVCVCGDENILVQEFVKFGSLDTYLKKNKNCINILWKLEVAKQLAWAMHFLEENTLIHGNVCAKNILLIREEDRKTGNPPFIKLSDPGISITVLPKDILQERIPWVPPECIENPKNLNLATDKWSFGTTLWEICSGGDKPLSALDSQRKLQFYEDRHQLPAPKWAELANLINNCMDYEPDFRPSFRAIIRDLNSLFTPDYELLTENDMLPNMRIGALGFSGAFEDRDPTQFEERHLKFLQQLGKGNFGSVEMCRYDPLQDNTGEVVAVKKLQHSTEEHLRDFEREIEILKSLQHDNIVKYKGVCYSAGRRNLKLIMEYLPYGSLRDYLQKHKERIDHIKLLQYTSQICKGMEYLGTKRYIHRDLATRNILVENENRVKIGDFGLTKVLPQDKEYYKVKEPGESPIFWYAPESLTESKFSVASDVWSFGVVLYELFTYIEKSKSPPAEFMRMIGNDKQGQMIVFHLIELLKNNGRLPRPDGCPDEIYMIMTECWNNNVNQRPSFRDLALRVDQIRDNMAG
Sequence of JAK1 (P23458 whole entry, species assumed): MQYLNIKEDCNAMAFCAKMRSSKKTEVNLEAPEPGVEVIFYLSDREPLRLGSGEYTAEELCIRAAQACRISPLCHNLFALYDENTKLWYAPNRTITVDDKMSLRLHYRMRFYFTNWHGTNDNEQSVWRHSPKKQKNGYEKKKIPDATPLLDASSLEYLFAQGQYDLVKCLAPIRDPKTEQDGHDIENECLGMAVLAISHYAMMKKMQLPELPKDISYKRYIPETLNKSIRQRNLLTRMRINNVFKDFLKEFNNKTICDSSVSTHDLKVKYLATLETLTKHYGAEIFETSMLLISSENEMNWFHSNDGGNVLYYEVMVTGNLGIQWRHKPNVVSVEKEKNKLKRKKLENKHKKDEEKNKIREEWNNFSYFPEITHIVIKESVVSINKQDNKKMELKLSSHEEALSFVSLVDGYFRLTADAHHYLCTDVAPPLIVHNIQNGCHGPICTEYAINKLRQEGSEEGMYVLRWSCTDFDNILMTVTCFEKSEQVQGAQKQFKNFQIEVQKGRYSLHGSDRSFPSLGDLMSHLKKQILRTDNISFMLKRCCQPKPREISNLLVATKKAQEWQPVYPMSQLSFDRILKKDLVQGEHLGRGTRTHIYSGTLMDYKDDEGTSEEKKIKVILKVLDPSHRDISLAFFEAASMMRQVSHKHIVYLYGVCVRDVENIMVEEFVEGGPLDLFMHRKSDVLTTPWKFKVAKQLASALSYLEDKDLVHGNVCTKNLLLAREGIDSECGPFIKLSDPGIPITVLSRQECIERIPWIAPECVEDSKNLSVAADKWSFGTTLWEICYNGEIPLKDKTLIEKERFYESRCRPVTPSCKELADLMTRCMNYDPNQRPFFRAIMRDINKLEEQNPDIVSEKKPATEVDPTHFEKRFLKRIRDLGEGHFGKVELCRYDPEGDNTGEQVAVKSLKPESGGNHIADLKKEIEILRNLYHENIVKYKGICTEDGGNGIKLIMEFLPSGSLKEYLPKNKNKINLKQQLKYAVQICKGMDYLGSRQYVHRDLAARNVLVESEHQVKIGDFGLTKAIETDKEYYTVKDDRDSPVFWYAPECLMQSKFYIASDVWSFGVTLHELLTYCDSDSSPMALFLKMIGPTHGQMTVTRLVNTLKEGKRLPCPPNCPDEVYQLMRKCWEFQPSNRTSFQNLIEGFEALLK

SMILES: Cc1cnc(Nc2cc3c(c(C(F)(F)F)c2)B(O)OC3)nc1N[C@@H]1COCC[C@H]1C#N (single isomer, unassigned) [Example 033a, (trans)-3-[[2-[[1-hydroxy-7-(trifluoromethyl)-3H-2,1-benzoxaborol-5-yl]amino]-5-methyl-pyrimidin-4-yl]amino]tetrahydropyran-4-carbonitrile]
- Dog LM QH [1]: <19.9%
- IC50 (JAK1): 0.4 nM
- IC50 (IL-4/pSTAT6): 136 nM
- IC50 (IL-31): 19.1 nM
- IC50 (JAK2): 8.1 nM
- IC50 (GM-CSF/pSTAT5): 1700 nM
- Cmax ([2]; dog, in vivo): 279 ng/mL
- AUC(0-inf) ([2]; dog, in vivo, read-out: Mean AUCINF_obs): 2560 ng·h/mL
- AUC(0-t) ([2]; dog, in vivo, read-out: Mean AUClast): 2460 ng·h/mL
- concentration at 48 h ([2]; dog, in vivo, read-out: Mean Clast): 4.74 ng/mL
- half-life ([2]; dog, in vivo, read-out: Mean T1/2 (converted)): 14.6 h
- Tmax ([2]; dog, in vivo, read-out: Median Tmax): 1 h
- Median Tlast [2]: 48 h
- anti-pruritic effect compared to IL-31 baseline/alone [3]: significant anti-pruritic effect
